# Data from paper PMC8708821, “Comprehensive Analysis and Biological Characterization of Venom Components from Solitary Scoliid Wasp Campsomeriella annulata annulata” (Toxins, 2021).
# Where two headings read alike, the source gives them in different places. Marks after values point to notes of the source that are not given here. No end group written: not given here.
# Assays:
# [1] = ref Shigeri et al. [34]; cited from earlier work
# Source text: Table 10 Antimicrobial, hemolytic, and histamine-releasing activities of annulatin and related peptides. | column: Hemolytic Activity (%) / at 10 μmol·L^−1
# mast cells [2] = conditions: ref Shigeri et al. [34]; cited from earlier work
# Source text: Table 10 Antimicrobial, hemolytic, and histamine-releasing activities of annulatin and related peptides. | column: Histamine Releasing Activity at 10 μmol·L^−1 (%)
# neuronal cell lines = conditions: previous study; neuronal cell integrity and mitochondrial metabolism; ref [28]; cited from earlier work
# Source text: The venom of solitary wasps is a rich source of neuroactive chemicals, including bradykinin-related peptides, which disrupt the synaptic transmission of the nAChR in the central nervous system of prey. Our group has studied the neuroprotective effects of natural peptides from solitary wasp venoms against the H2O2-induced oxidative stress in neuronal cell lines after different treatments for acute and chronic conditions.. This cell model, which promotes excessive ROS generation, with consequent neurotoxic effects, represents typical characte ...
# [3] = target: T1, AChE from Electrophorus electricus (electric eel) Type VI-S (Electrophorus electricus, UniProt O42275); assay: AChE activity, Ellman's technique; type: biochemical; conditions: positive control; mean ± SD, three independent experiments in triplicate
# T1 construct: purchased Sigma-Aldrich Type VI-S
# Procedure: The AChE activity was evaluated spectrophotometrically using Ellman’s technique, as previously reported by Harry et al., with slight modifications. Both peptides (20 μL) at varied concentrations (20, 10, 5, 1, and 0.1 µmol·L^−1), 10 μL of AChE (0.5 U·mL^−1) (Sigma, St. Louis, MO, USA) and 160 μL of 5,5-dithiobis-2-nitrobenzoic acid (DTNB, Ellman’s reagent) 0.33 mM (Sigma, St. Louis, MO, USA) in phosphate buffer (0.1 mo·L^−1, pH 8.0) were placed in triplicate in a microplate, and incubated at room temperature for 10 min after adding 10 μL of acetylthiocholine iodide (20 mmol·L^−1) (Sigma, St. Louis, MO, USA). The hydrolysis of acetylthiocholine iodide leads to production of acetic acid and thiocholine, which reacts with DTNB producing the anion 5-thio-2-nitrobenzoic acid, which was monitored at 412 nm during 20 min in microplate reader (BioTek Instruments, Inc., Winooski, VT, USA. Tetraethyl pyrophosphate (TEPP; Sigma, St. Louis, MO, USA) was used as a positive control. IAChE = [(Ac − As)/Ac] × 100, where Ac = absorbance for the control and As = absorbance for the sample was used to compute the percentage of inhibition (I) of AChE.
# PC12 cells [4] = assay: Toxicity on cell integrity, crystal violet, PC12 cells; type: cell-based, rat
# Procedure: (§1) The cytotoxic effects of α-campsomerin and β-campsomerin were determined by the staining of attached cells with crystal violet dye, according to the literature. In a 96-well plate (Nest Biotechnology, Rahway, USA), PC12 and Vero cells were put at 2.0 × 10^4 and 1.0 × 10^4 cells/well, respectively. Cells were treated with different concentrations (0.1 to 10 µmol·L^−1) of peptides in 0.10 mL. The plate was incubated for 1, 6, 24, and 48 h at 37 °C. There were control and DMSO groups for each concentration and time course tested, representing untreated cells (just one equal volume of culture medium) and cells treated with DMSO (5%; v/v) diluted in the medium culture, respectively. The media was then aspirated, and the cells were stained with a 0.5 percent crystal violet staining solution (0.5%; m/v), washed, and air-dried. Afterwards, methanol (200 μL) was added, and the absorbance measured at 570 nm using a SpectraMax reader (Molecular Devices, CA, USA). Data were obtained from three independent experiments in triplicate, and were expressed by percentage of cell viability, calculated using the control group as 100% of integrity.
# Vero cells = assay: Toxicity on cell integrity, crystal violet, Vero cells; type: cell-based, Cercopithecus aethiops (African green monkey); conditions: for cytotoxicity in Vero cells: 0.1, 1 and 10 μmol·L−1, 1, 6, 24 and 48 h, vs untreated cells, n = 3 in triplicate
# Procedure: as §1
# PC12 cells [5] = assay: Neuroprotective assay against H2O2-induced oxidative stress; type: cell-based, rat
# Procedure: Initially, PC12 cells were seeded at 2 × 10^4 cells/well in a 96-well plate (Nest Biotechnology, Rahway, NJ, USA) for 24 h. To evaluate the neuroprotective effects of peptides, cells were pre-treated at 37 °C with α-campsomerin and β-campsomerin (0.1 to 20 µmol·L^−1), diluted in DMEM medium supplemented with antibiotics without fetal bovine serum for 4 h. […] Cells untreated with H2O2 represent control group in all experiments. Next, all groups were analyzed by the cell integrity.
# human neprilysin (NEP) = human neprilysin (NEP) (Homo sapiens, UniProt P08473); assay: NEP catalytic activity inhibition (FRET substrate); type: biochemical; conditions: peptide 20, 30 and 50 μmol·L−1; FRET substrate Abz-RGFK(Dnp)-OH 2, 4, 8 μmol·L−1; Tris HCl 50 mmol·L−1 pH 7.5; 37 °C; 15 min; triplicate
# Procedure: (§2) Experiments were performed using different concentrations of α-campsomerin and β-campsomerin with ACE and NEP, and their FRET substrates, FRK(Dnp)P-OH and Abz-RGFK (Dnp)-OH, respectively. The assays used 7.5 ng of both peptidases and the substrates were added in a 100 mmol·L^−1 Tris-HCl buffer containing 50 mmol·L^−1 NaCl, 10 μmol·L^−1 ZnCl2, pH 7.0 (for ACE assays) and Tris HCl 50 mmol·L^−1, pH 7.5 buffer (for NEP assays). All experiments were carried out at 37 °C and at a final volume of 100 µL Three FRETs substrate concentrations were used (2 μmol·L^−1, 4 μmol·L^−1 and 8 μmol·L^−1), and were incubated with three concentrations of both peptides (20 μmol·L^−1, 30 μmol·L^−1 and 50 μmol·L^−1). Controls without the peptides were also performed in all assays. The reactions were monitored for 15 min on fluorimeter (Victor 3—Perkin–Elmer) and the results were analyzed on GraFit 3.0 from Erithacus Software. All assays were performed in triplicate.
# neprilysin (NEP) = assay: Stability test: cleavage of peptide by NEP; type: in vitro ADME; conditions: human, isolated human neprilysin (NEP); peptide 30 µmol·L−1 incubated four hours at 37 °C with NEP (7.5 n); RP-HPLC C-18, UV 214 nm
# Procedure: (§3) Both peptides (30 µmol·L^−1) were incubated for four hours at 37 °C with ACE and NEP (7.5 n). As a negative control, samples containing only synthetic peptides were employed. After incubation, samples were analyzed on a Shim-pack VP-ODS C-18 column (4.6 150 mm) utilizing reverse-phase chromatography on HPLC (Prominence, Shimadzu). Solvent A was 0.1% TFA in water (solvent A), and solvent B was acetonitrile plus solvent A (9:1). Over a 20-min period, separations were carried out at a flow rate of 1 mL/min with a 10–60 percent gradient of solvent B. Elution was always followed by an assessment of UV absorption (214 nm).
# ACE I = system: T2, ACE I; assay: Stability test: cleavage of peptide by ACE; type: in vitro ADME; conditions: rabbit, isolated ACE I from rabbit lung; peptide 30 µmol·L−1 incubated four hours at 37 °C with ACE (7.5 n); RP-HPLC C-18, UV 214 nm
# T2 construct: The ACE I from rabbit lung; purchased Sigma-Aldrich; host or cells: rabbit lung
# Procedure: as §3
# ACE I from rabbit lung = target: T3, ACE I from rabbit lung (Oryctolagus cuniculus, UniProt P12822); assay: ACE catalytic activity inhibition (FRET substrate); type: biochemical; conditions: peptide 20, 30 and 50 μmol·L−1; FRET substrate Abz-FRK(Dnp)P-OH 2, 4, 8 μmol·L−1; 100 mmol·L−1 Tris-HCl, 50 mmol·L−1 NaCl, 10 μmol·L−1 ZnCl2, pH 7.0; 37 °C; 15 min; triplicate
# T3 construct: The ACE I from rabbit lung; purchased Sigma-Aldrich; host or cells: rabbit lung
# T3 sequence (P12822 34-1310): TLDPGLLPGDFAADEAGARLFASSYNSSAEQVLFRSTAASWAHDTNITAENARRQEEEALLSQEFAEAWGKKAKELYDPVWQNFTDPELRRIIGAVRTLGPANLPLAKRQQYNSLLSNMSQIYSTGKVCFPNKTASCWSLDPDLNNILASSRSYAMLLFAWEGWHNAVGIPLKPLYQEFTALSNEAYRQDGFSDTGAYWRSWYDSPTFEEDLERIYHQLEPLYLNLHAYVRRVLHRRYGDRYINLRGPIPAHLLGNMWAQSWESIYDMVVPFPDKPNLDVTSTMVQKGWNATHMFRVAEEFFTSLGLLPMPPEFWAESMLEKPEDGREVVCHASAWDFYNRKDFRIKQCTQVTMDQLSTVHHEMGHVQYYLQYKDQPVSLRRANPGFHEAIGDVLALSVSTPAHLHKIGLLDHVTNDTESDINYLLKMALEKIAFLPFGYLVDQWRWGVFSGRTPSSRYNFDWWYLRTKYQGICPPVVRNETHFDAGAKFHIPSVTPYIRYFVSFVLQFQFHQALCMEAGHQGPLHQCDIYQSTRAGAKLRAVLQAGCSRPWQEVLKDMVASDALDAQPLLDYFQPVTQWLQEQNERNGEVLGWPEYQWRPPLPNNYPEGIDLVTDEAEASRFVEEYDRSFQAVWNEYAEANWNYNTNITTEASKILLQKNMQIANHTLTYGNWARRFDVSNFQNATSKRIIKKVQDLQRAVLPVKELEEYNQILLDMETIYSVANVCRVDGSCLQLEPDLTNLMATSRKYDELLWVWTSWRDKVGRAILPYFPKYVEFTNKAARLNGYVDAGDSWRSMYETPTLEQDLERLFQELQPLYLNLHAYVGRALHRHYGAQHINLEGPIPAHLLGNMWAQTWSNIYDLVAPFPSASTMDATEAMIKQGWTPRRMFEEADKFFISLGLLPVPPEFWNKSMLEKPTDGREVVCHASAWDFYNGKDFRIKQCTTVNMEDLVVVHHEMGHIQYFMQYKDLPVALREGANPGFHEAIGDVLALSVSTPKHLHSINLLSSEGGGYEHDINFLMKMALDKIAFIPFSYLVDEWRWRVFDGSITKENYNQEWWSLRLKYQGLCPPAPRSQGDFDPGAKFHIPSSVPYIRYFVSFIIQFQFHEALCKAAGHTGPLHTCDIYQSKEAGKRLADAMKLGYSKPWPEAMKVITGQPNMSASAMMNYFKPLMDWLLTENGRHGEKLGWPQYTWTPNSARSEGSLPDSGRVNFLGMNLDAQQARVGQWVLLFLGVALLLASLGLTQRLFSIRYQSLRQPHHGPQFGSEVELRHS
# Procedure: as §2
# Hemolytic activity = type: cell-based
# Procedure: (§4) Antimicrobial, hemolytic, and histamine-releasing activities were measured as described previously. The microbial species used in this study were: Escherichia coli (NBRC 14237), Staphylococcus aureus (NBRC 12732), and Saccharomyces cerevisiae (NBRC 10217), which were purchased from the Biological Resource Center (BRC, Kisarazu, Japan), National Institute of Technology and Evaluation. The pI of peptides was calculated with IPC (http://isoelectric.org/index.html, accessed on 8 November 2021). The physicochemical properties were examined using HeliQuest (http://heliquest.ipmc.cnrs.fr/, accessed on 8 November 2021).
# mast cells [6] = assay: Histamine-releasing activity; type: cell-based
# Procedure: as §4
# [7] = system: Escherichia coli (NBRC 14237); assay: Antimicrobial activity (MIC), E. coli; type: cell-based
# Procedure: as §4
# [8] = system: Saccharomyces cerevisiae (NBRC 10217); assay: Antimicrobial activity (MIC), S. cerevisiae; type: cell-based
# Procedure: as §4
# [9] = system: Staphylococcus aureus (NBRC 12732); assay: Antimicrobial activity (MIC), S. aureus; type: cell-based
# Procedure: as §4
# [10] = DMSO 5% (v/v), after 6, 24 and 48 h, vs control group
# Sequence of human neprilysin (NEP) (P08473 whole entry): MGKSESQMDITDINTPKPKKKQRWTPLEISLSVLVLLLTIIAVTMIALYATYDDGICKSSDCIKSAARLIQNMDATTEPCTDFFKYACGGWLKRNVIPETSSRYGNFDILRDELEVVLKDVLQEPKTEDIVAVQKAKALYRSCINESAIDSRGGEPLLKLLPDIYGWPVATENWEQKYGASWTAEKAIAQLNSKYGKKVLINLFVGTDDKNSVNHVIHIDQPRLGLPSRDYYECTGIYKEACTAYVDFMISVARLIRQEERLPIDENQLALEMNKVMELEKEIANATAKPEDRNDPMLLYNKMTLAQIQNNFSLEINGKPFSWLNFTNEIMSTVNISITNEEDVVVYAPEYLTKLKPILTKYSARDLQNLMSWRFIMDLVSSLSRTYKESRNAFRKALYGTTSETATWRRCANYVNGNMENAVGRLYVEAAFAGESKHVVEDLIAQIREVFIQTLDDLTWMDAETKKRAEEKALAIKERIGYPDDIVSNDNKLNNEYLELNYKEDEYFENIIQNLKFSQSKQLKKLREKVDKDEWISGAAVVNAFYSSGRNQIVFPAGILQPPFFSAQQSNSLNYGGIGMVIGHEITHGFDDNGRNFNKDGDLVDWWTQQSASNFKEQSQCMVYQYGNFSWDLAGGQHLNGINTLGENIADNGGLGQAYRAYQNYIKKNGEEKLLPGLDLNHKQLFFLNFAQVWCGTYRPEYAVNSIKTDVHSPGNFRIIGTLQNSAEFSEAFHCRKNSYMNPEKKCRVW
# T1 sequence (O42275 24-633): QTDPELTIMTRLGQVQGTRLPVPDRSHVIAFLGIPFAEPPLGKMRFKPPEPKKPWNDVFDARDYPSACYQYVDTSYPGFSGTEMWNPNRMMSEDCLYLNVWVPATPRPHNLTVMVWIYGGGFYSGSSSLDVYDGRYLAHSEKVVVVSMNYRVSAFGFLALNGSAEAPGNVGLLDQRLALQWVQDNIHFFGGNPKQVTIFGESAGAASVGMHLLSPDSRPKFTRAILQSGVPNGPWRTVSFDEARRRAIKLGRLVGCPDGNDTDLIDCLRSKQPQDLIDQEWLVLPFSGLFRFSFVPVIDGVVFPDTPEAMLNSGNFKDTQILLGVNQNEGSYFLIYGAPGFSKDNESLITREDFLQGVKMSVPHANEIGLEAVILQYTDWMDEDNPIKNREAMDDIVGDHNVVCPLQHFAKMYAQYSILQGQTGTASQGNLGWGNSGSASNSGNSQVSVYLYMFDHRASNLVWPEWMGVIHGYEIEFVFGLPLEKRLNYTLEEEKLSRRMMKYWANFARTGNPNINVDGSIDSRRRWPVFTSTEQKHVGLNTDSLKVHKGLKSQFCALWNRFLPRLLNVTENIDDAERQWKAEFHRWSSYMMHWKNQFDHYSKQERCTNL
molecule,measurement,setting,value
Mastoparan,Hemolytic Activity (%) at 10 μmol·L−1,[1],13.5 ^b %
same,Histamine Releasing Activity at 10 μmol·L−1 (%),mast cells [2],31.1 ^b %
DYVTVKGFSPLRKA [β-scoliidine],neuroprotective effects against H2O2-induced neurotoxicity in prolonged therapy,neuronal cell lines,showed neuroprotective effects
Melittin: honeybee hemolytic peptide,Hemolytic Activity (%) at 10 μmol·L−1,[1],100.0 ^b %
same,Histamine Releasing Activity at 10 μmol·L−1 (%),mast cells [2],64.3 ^b %
"CCOP(=O)(OCC)OP(=O)(OCC)OCC [TEPP, tetraethyl pyrophosphate]",AChE inhibition percentage,[3],76.20 ± 1.42%
"C[S+](C)[O-] [DMSO, reference compound]","cell integrity in PC12 cells, DMSO positive control",PC12 cells [4]; [10],decreased cell integrity
same,"cell integrity in Vero cells, DMSO positive control",Vero cells; [10],decreased cell integrity
OO [H2O2],reduction of PC12 cell integrity by H2O2,"PC12 cells [5]; H2O2 0.5 mmol·L−1, 20 h of treatment",60.5 ± 4.0%
same,H2O2 concentrations promoting PC12 cell death,"PC12 cells [5]; tested 1–0.06 mmol·L−1, 20 h, dose-dependent",greater than 0.3 mmol·L−1
PRLRRLTGLSPLR [α-campsomerin],Inhibition (%) NEP,human neprilysin (NEP),<0.01%
same,"metabolised at 4 h, 30 µmol·L−1",neprilysin (NEP),< 0.01%
same,PC12 cell integrity after 6 h of treatment,"PC12 cells [4]; all concentrations tested (0.1, 1, 10 μmol·L−1), 6 h",reduced cell integrity
same,cytotoxicity in Vero cells,Vero cells,no significant cytotoxicity
same,"metabolised at 4 h, 30 µmol·L−1",ACE I,< 0.01%
same,Inhibition (%) ACE,ACE I from rabbit lung,<0.01%
PRLRRLTGLSPLRAP [β-campsomerin],Inhibition (%) NEP,human neprilysin (NEP),<0.01%
same,"metabolised at 4 h, 30 µmol·L−1",neprilysin (NEP),< 0.01%
same,toxicity in PC12 cells under the conditions tested (discussion),"PC12 cells [4]; 0.1 to 10 µmol·L−1, up to 48 h",not toxic
same,cytotoxicity in Vero cells,Vero cells,no significant cytotoxicity
same,"metabolised at 4 h, 30 µmol·L−1",ACE I,< 0.01%
same,Inhibition (%) ACE,ACE I from rabbit lung,<0.01%
ISEALKSIIVG-NH2 [Annulatin],Hemolytic Activity (%) at 12.5 μmol·L−1,Hemolytic activity,15.4%
same,Histamine Releasing Activity at 10 μmol·L−1 (%),mast cells [6],33.0%
same,MIC E. coli (NBRC 14237),[7],Negative
same,MIC S. cerevisiae (NBRC 10217),[8],Negative
same,MIC S. aureus (NBRC 12732),[9],Negative
